Measurements: ChEMBL document CHEMBL1144479, “Synthesis and antimicrobial studies on novel chloro-fluorine containing hydroxy pyrazolines” (2007)
≈ marks a conversion by molar mass, not a printed value.

The molecules below were run on Escherichia coli (assay: microbe, parasite or virus in culture). Conditions: not given.
Format: functional, ATCC 25922

| SMILES | inhibition zone (IZ) [mm] |
| --- | --- |
| COc1ccc(C2=NN(C(=O)COc3ccc(Cl)cc3)C(O)(c3cc(F)c(Cl)cc3Cl)C2)cc1OC (stereo not drawn) | 8 |
| O=C(COc1ccc(Cl)cc1)N1N=C(c2ccc(Cl)cc2)CC1(O)c1cc(F)c(Cl)cc1Cl (stereo not drawn) | 18 |
| O=C(COc1ccc(Cl)cc1Cl)N1N=C(c2ccc(Cl)cc2)CC1(O)c1cc(F)c(Cl)cc1Cl (stereo not drawn) | 10 |
| O=C(COc1ccc(Cl)cc1Cl)N1N=C(c2ccccc2)CC1(O)c1cc(F)c(Cl)cc1Cl (stereo not drawn) | 17 |

Same assay, conditions: Escherichia coli, ATCC 25922, 24 h

| MIC [µg/mL] | SMILES |
| --- | --- |
| 25 (≈ 45.1 µM) | COc1ccc(C2=NN(C(=O)COc3ccc(Cl)cc3)C(O)(c3cc(F)c(Cl)cc3Cl)C2)cc1OC (stereo not drawn) |
| 12.5 (≈ 23.7 µM) | O=C(COc1ccc(Cl)cc1)N1N=C(c2ccc(Cl)cc2)CC1(O)c1cc(F)c(Cl)cc1Cl (stereo not drawn) |
| 25 (≈ 44.4 µM) | O=C(COc1ccc(Cl)cc1Cl)N1N=C(c2ccc(Cl)cc2)CC1(O)c1cc(F)c(Cl)cc1Cl (stereo not drawn) |
| 12.5 (≈ 23.7 µM) | O=C(COc1ccc(Cl)cc1Cl)N1N=C(c2ccccc2)CC1(O)c1cc(F)c(Cl)cc1Cl (stereo not drawn) |

These molecules were tested on Talaromyces marneffei (assay: Antifungal activity against Penicillium marneffei after 3 to 4 days by serial plate dilution method). Conditions: not given.
Format: functional

| SMILES | inhibition zone (IZ) [mm] |
| --- | --- |
| O=C(COc1ccc(Cl)cc1)N1N=C(c2ccc(Cl)cc2)CC1(O)c1cc(F)c(Cl)cc1Cl (stereo not drawn) | 18 |
| O=C(COc1ccc(Cl)cc1Cl)N1N=C(c2ccccc2)CC1(O)c1cc(F)c(Cl)cc1Cl (stereo not drawn) | 15 |

Same assay, conditions: Talaromyces marneffei

| MIC [µg/mL] | SMILES |
| --- | --- |
| > 100 | COc1ccc(C2=NN(C(=O)COc3ccc(Cl)cc3)C(O)(c3cc(F)c(Cl)cc3Cl)C2)cc1OC (stereo not drawn) |
| 6.25 (≈ 11.8 µM) | O=C(COc1ccc(Cl)cc1)N1N=C(c2ccc(Cl)cc2)CC1(O)c1cc(F)c(Cl)cc1Cl (stereo not drawn) |
| > 100 | O=C(COc1ccc(Cl)cc1Cl)N1N=C(c2ccc(Cl)cc2)CC1(O)c1cc(F)c(Cl)cc1Cl (stereo not drawn) |
| 6.25 (≈ 11.8 µM) | O=C(COc1ccc(Cl)cc1Cl)N1N=C(c2ccccc2)CC1(O)c1cc(F)c(Cl)cc1Cl (stereo not drawn) |

The molecules below were run on Aspergillus fumigatus (assay: Antifungal activity against Aspergillus fumigatus NCIM no. 902 after 3 to 4 days by serial plate dilution method). Conditions: not given.
Format: functional

| SMILES | inhibition zone (IZ) [mm] |
| --- | --- |
| O=C(COc1ccc(Cl)cc1)N1N=C(c2ccc(Cl)cc2)CC1(O)c1cc(F)c(Cl)cc1Cl (stereo not drawn) | 18 |
| O=C(COc1ccc(Cl)cc1Cl)N1N=C(c2ccccc2)CC1(O)c1cc(F)c(Cl)cc1Cl (stereo not drawn) | 13 |

Same assay, conditions: Aspergillus fumigatus

| MIC [µg/mL] | SMILES |
| --- | --- |
| > 100 | COc1ccc(C2=NN(C(=O)COc3ccc(Cl)cc3)C(O)(c3cc(F)c(Cl)cc3Cl)C2)cc1OC (stereo not drawn) |
| 6.25 (≈ 11.8 µM) | O=C(COc1ccc(Cl)cc1)N1N=C(c2ccc(Cl)cc2)CC1(O)c1cc(F)c(Cl)cc1Cl (stereo not drawn) |
| > 100 | O=C(COc1ccc(Cl)cc1Cl)N1N=C(c2ccc(Cl)cc2)CC1(O)c1cc(F)c(Cl)cc1Cl (stereo not drawn) |
| 12.5 (≈ 23.7 µM) | O=C(COc1ccc(Cl)cc1Cl)N1N=C(c2ccccc2)CC1(O)c1cc(F)c(Cl)cc1Cl (stereo not drawn) |

These molecules were tested on Trichophyton benhamiae (assay: Antifungal activity against Trichophyton mentagrophytes after 3 to 4 days by serial plate dilution method). Conditions: not given.
Format: functional, Arthroderma benhamiae

| SMILES | inhibition zone (IZ) [mm] |
| --- | --- |
| O=C(COc1ccc(Cl)cc1)N1N=C(c2ccc(Cl)cc2)CC1(O)c1cc(F)c(Cl)cc1Cl (stereo not drawn) | 19 |
| O=C(COc1ccc(Cl)cc1Cl)N1N=C(c2ccc(Cl)cc2)CC1(O)c1cc(F)c(Cl)cc1Cl (stereo not drawn) | 12 |
| O=C(COc1ccc(Cl)cc1Cl)N1N=C(c2ccccc2)CC1(O)c1cc(F)c(Cl)cc1Cl (stereo not drawn) | 11 |

Same assay, conditions: Trichophyton benhamiae

| MIC [µg/mL] | SMILES |
| --- | --- |
| > 100 | COc1ccc(C2=NN(C(=O)COc3ccc(Cl)cc3)C(O)(c3cc(F)c(Cl)cc3Cl)C2)cc1OC (stereo not drawn) |
| 6.25 (≈ 11.8 µM) | O=C(COc1ccc(Cl)cc1)N1N=C(c2ccc(Cl)cc2)CC1(O)c1cc(F)c(Cl)cc1Cl (stereo not drawn) |
| 12.5 (≈ 22.2 µM) | O=C(COc1ccc(Cl)cc1Cl)N1N=C(c2ccc(Cl)cc2)CC1(O)c1cc(F)c(Cl)cc1Cl (stereo not drawn) |
| 25 (≈ 47.3 µM) | O=C(COc1ccc(Cl)cc1Cl)N1N=C(c2ccccc2)CC1(O)c1cc(F)c(Cl)cc1Cl (stereo not drawn) |

Each molecule was assayed on Staphylococcus aureus (assay: microbe, parasite or virus in culture). Conditions: not given.
Format: functional, ATCC 25923

| SMILES | inhibition zone (IZ) [mm] |
| --- | --- |
| O=C(COc1ccc(Cl)cc1)N1N=C(c2ccc(Cl)cc2)CC1(O)c1cc(F)c(Cl)cc1Cl (stereo not drawn) | 18 |
| O=C(COc1ccc(Cl)cc1Cl)N1N=C(c2ccccc2)CC1(O)c1cc(F)c(Cl)cc1Cl (stereo not drawn) | 15 |

Same assay, conditions: Staphylococcus aureus, ATCC 25923, 24 h

| MIC [µg/mL] | SMILES |
| --- | --- |
| > 100 | COc1ccc(C2=NN(C(=O)COc3ccc(Cl)cc3)C(O)(c3cc(F)c(Cl)cc3Cl)C2)cc1OC (stereo not drawn) |
| 6.25 (≈ 11.8 µM) | O=C(COc1ccc(Cl)cc1)N1N=C(c2ccc(Cl)cc2)CC1(O)c1cc(F)c(Cl)cc1Cl (stereo not drawn) |
| > 100 | O=C(COc1ccc(Cl)cc1Cl)N1N=C(c2ccc(Cl)cc2)CC1(O)c1cc(F)c(Cl)cc1Cl (stereo not drawn) |
| 6.25 (≈ 11.8 µM) | O=C(COc1ccc(Cl)cc1Cl)N1N=C(c2ccccc2)CC1(O)c1cc(F)c(Cl)cc1Cl (stereo not drawn) |

What follows are molecules tested on Candida albicans (assay: Antifungal activity against Candida albicans NCIM no. 300 after 3 to 4 days by serial plate dilution method). Conditions: not given.
Format: functional

| SMILES | inhibition zone (IZ) [mm] |
| --- | --- |
| COc1ccc(C2=NN(C(=O)COc3ccc(Cl)cc3)C(O)(c3cc(F)c(Cl)cc3Cl)C2)cc1OC (stereo not drawn) | 10 |
| O=C(COc1ccc(Cl)cc1)N1N=C(c2ccc(Cl)cc2)CC1(O)c1cc(F)c(Cl)cc1Cl (stereo not drawn) | 20 |
| O=C(COc1ccc(Cl)cc1Cl)N1N=C(c2ccccc2)CC1(O)c1cc(F)c(Cl)cc1Cl (stereo not drawn) | 10 |

Same assay, conditions: Candida albicans

| MIC [µg/mL] | SMILES |
| --- | --- |
| 25 (≈ 45.1 µM) | COc1ccc(C2=NN(C(=O)COc3ccc(Cl)cc3)C(O)(c3cc(F)c(Cl)cc3Cl)C2)cc1OC (stereo not drawn) |
| 12.5 (≈ 23.7 µM) | O=C(COc1ccc(Cl)cc1)N1N=C(c2ccc(Cl)cc2)CC1(O)c1cc(F)c(Cl)cc1Cl (stereo not drawn) |
| > 100 | O=C(COc1ccc(Cl)cc1Cl)N1N=C(c2ccc(Cl)cc2)CC1(O)c1cc(F)c(Cl)cc1Cl (stereo not drawn) |
| 25 (≈ 47.3 µM) | O=C(COc1ccc(Cl)cc1Cl)N1N=C(c2ccccc2)CC1(O)c1cc(F)c(Cl)cc1Cl (stereo not drawn) |

These molecules were tested on Streptococcus pyogenes (assay: Antibacterial activity against Streptococcus pyogenes after 24 hrs by disc diffusion method). Conditions: not given.
Format: functional

| SMILES | inhibition zone (IZ) [mm] |
| --- | --- |
| COc1ccc(C2=NN(C(=O)COc3ccc(Cl)cc3)C(O)(c3cc(F)c(Cl)cc3Cl)C2)cc1OC (stereo not drawn) | 10 |
| O=C(COc1ccc(Cl)cc1)N1N=C(c2ccc(Cl)cc2)CC1(O)c1cc(F)c(Cl)cc1Cl (stereo not drawn) | 20 |
| O=C(COc1ccc(Cl)cc1Cl)N1N=C(c2ccccc2)CC1(O)c1cc(F)c(Cl)cc1Cl (stereo not drawn) | 15 |

Same assay, conditions: Streptococcus pyogenes, 24 h

| MIC [µg/mL] | SMILES |
| --- | --- |
| 25 (≈ 45.1 µM) | COc1ccc(C2=NN(C(=O)COc3ccc(Cl)cc3)C(O)(c3cc(F)c(Cl)cc3Cl)C2)cc1OC (stereo not drawn) |
| 12.5 (≈ 23.7 µM) | O=C(COc1ccc(Cl)cc1)N1N=C(c2ccc(Cl)cc2)CC1(O)c1cc(F)c(Cl)cc1Cl (stereo not drawn) |
| > 100 | O=C(COc1ccc(Cl)cc1Cl)N1N=C(c2ccc(Cl)cc2)CC1(O)c1cc(F)c(Cl)cc1Cl (stereo not drawn) |
| 12.5 (≈ 23.7 µM) | O=C(COc1ccc(Cl)cc1Cl)N1N=C(c2ccccc2)CC1(O)c1cc(F)c(Cl)cc1Cl (stereo not drawn) |

Each molecule was assayed on Klebsiella pneumoniae (assay: Antibacterial activity against Klebsiella pneumoniae after 24 hrs by disc diffusion method). Conditions: not given.
Format: functional

| SMILES | inhibition zone (IZ) [mm] |
| --- | --- |
| O=C(COc1ccc(Cl)cc1)N1N=C(c2ccc(Cl)cc2)CC1(O)c1cc(F)c(Cl)cc1Cl (stereo not drawn) | 19 |
| O=C(COc1ccc(Cl)cc1Cl)N1N=C(c2ccccc2)CC1(O)c1cc(F)c(Cl)cc1Cl (stereo not drawn) | 16 |

Same assay, conditions: Klebsiella pneumoniae, 24 h

| MIC [µg/mL] | SMILES |
| --- | --- |
| > 100 | COc1ccc(C2=NN(C(=O)COc3ccc(Cl)cc3)C(O)(c3cc(F)c(Cl)cc3Cl)C2)cc1OC (stereo not drawn) |
| 6.25 (≈ 11.8 µM) | O=C(COc1ccc(Cl)cc1)N1N=C(c2ccc(Cl)cc2)CC1(O)c1cc(F)c(Cl)cc1Cl (stereo not drawn) |
| 6.25 (≈ 11.1 µM) | O=C(COc1ccc(Cl)cc1Cl)N1N=C(c2ccc(Cl)cc2)CC1(O)c1cc(F)c(Cl)cc1Cl (stereo not drawn) |
| 6.25 (≈ 11.8 µM) | O=C(COc1ccc(Cl)cc1Cl)N1N=C(c2ccccc2)CC1(O)c1cc(F)c(Cl)cc1Cl (stereo not drawn) |

These molecules were tested on Pseudomonas aeruginosa (assay: microbe, parasite or virus in culture). Conditions: not given.
Format: functional, ATCC 27853

| SMILES | inhibition zone (IZ) [mm] |
| --- | --- |
| O=C(COc1ccc(Cl)cc1)N1N=C(c2ccc(Cl)cc2)CC1(O)c1cc(F)c(Cl)cc1Cl (stereo not drawn) | 21 |
| O=C(COc1ccc(Cl)cc1Cl)N1N=C(c2ccc(Cl)cc2)CC1(O)c1cc(F)c(Cl)cc1Cl (stereo not drawn) | 23 |
| O=C(COc1ccc(Cl)cc1Cl)N1N=C(c2ccccc2)CC1(O)c1cc(F)c(Cl)cc1Cl (stereo not drawn) | 19 |

Same assay, conditions: Pseudomonas aeruginosa, ATCC 27853, 24 h

| MIC [µg/mL] | SMILES |
| --- | --- |
| > 100 | COc1ccc(C2=NN(C(=O)COc3ccc(Cl)cc3)C(O)(c3cc(F)c(Cl)cc3Cl)C2)cc1OC (stereo not drawn) |
| 6.25 (≈ 11.8 µM) | O=C(COc1ccc(Cl)cc1)N1N=C(c2ccc(Cl)cc2)CC1(O)c1cc(F)c(Cl)cc1Cl (stereo not drawn) |
| 6.25 (≈ 11.1 µM) | O=C(COc1ccc(Cl)cc1Cl)N1N=C(c2ccc(Cl)cc2)CC1(O)c1cc(F)c(Cl)cc1Cl (stereo not drawn) |
| 6.25 (≈ 11.8 µM) | O=C(COc1ccc(Cl)cc1Cl)N1N=C(c2ccccc2)CC1(O)c1cc(F)c(Cl)cc1Cl (stereo not drawn) |

Each molecule was assayed on Aspergillus flavus (assay: Antifungal activity against Aspergillus flavus NCIM no. 524 after 3 to 4 days by serial plate dilution method). Conditions: not given.
Format: functional

| SMILES | inhibition zone (IZ) [mm] |
| --- | --- |
| COc1ccc(C2=NN(C(=O)COc3ccc(Cl)cc3)C(O)(c3cc(F)c(Cl)cc3Cl)C2)cc1OC (stereo not drawn) | 9 |
| O=C(COc1ccc(Cl)cc1)N1N=C(c2ccc(Cl)cc2)CC1(O)c1cc(F)c(Cl)cc1Cl (stereo not drawn) | 16 |
| O=C(COc1ccc(Cl)cc1Cl)N1N=C(c2ccc(Cl)cc2)CC1(O)c1cc(F)c(Cl)cc1Cl (stereo not drawn) | 10 |
| O=C(COc1ccc(Cl)cc1Cl)N1N=C(c2ccccc2)CC1(O)c1cc(F)c(Cl)cc1Cl (stereo not drawn) | 15 |

Same assay, conditions: Aspergillus flavus

| MIC [µg/mL] | SMILES |
| --- | --- |
| 25 (≈ 45.1 µM) | COc1ccc(C2=NN(C(=O)COc3ccc(Cl)cc3)C(O)(c3cc(F)c(Cl)cc3Cl)C2)cc1OC (stereo not drawn) |
| 12.5 (≈ 23.7 µM) | O=C(COc1ccc(Cl)cc1)N1N=C(c2ccc(Cl)cc2)CC1(O)c1cc(F)c(Cl)cc1Cl (stereo not drawn) |
| 25 (≈ 44.4 µM) | O=C(COc1ccc(Cl)cc1Cl)N1N=C(c2ccc(Cl)cc2)CC1(O)c1cc(F)c(Cl)cc1Cl (stereo not drawn) |
| 12.5 (≈ 23.7 µM) | O=C(COc1ccc(Cl)cc1Cl)N1N=C(c2ccccc2)CC1(O)c1cc(F)c(Cl)cc1Cl (stereo not drawn) |
